Columns and labels:
Conditions in all cases: 72 h
HepG2 [1] = assay: drug sensitivity score (DSS) for viability; higher = more toxic; extreme values may be limits of the assay
U2OS [2] = assay: as above
Vero E6 [3] = assay: as above
Caco-2 [4] = assay: as above
Calu-3 [5] = assay: as above
HepG2 [6] = assay: cell viability relative to DMSO; higher = less toxic
U2OS [7] = assay: as above
Vero E6 [8] = assay: as above
Caco-2 [9] = assay: as above
Calu-3 [10] = assay: as above
HepG2 [11] = assay: relative viability EC50 (midpoint between 100% and the lowest measured viability); higher = less toxic
U2OS [12] = assay: as above
Vero E6 [13] = assay: as above
Caco-2 [14] = assay: as above
Calu-3 [15] = assay: as above

Structure (SMILES) | drug sensitivity score (HepG2 [1]) | drug sensitivity score (U2OS [2]) | drug sensitivity score (Vero E6 [3]) | drug sensitivity score (Caco-2 [4]) | drug sensitivity score (Calu-3 [5]) | cell viability (HepG2 [6]; 1 nM) | cell viability (HepG2 [6]; 10 nM) | cell viability (HepG2 [6]; 100 nM) | cell viability (HepG2 [6]; 1000 nM) | cell viability (HepG2 [6]; 10000 nM) | cell viability (U2OS [7]; 1 nM) | cell viability (U2OS [7]; 10 nM) | cell viability (U2OS [7]; 100 nM) | cell viability (U2OS [7]; 1000 nM) | cell viability (U2OS [7]; 10000 nM) | cell viability (Vero E6 [8]; 1 nM) | cell viability (Vero E6 [8]; 10 nM) | cell viability (Vero E6 [8]; 100 nM) | cell viability (Vero E6 [8]; 1000 nM) | cell viability (Vero E6 [8]; 10000 nM) | cell viability (Caco-2 [9]; 1 nM) | cell viability (Caco-2 [9]; 10 nM) | cell viability (Caco-2 [9]; 100 nM) | cell viability (Caco-2 [9]; 1000 nM) | cell viability (Caco-2 [9]; 10000 nM) | cell viability (Calu-3 [10]; 1 nM) | cell viability (Calu-3 [10]; 10 nM) | cell viability (Calu-3 [10]; 100 nM) | cell viability (Calu-3 [10]; 1000 nM) | cell viability (Calu-3 [10]; 10000 nM) | relative viability EC50 (HepG2 [11]) | relative viability EC50 (U2OS [12]) | relative viability EC50 (Vero E6 [13]) | relative viability EC50 (Caco-2 [14]) | relative viability EC50 (Calu-3 [15])
CC1=CC(=C(c2ccc(N)cc2)c2ccc(N)cc2)C=CC1=N [basic-fuchsin] | 7.9 | 7.1 | 6.6 | 7.9 | 6.6 | 102% | 97% | 104% | 83% | 7.8% | 97.8% | 97.9% | 95.2% | 86.5% | 12.8% | 97.2% | 91% | 94.8% | 82.3% | 29.8% | 88.8% | 92.4% | 106% | 77.6% | 18.6% | 92.3% | 102% | 103% | 87.1% | 19.5% | 1.81 µM | 1.96 µM | 1.54 µM | 1.47 µM | 1.93 µM
O=C(c1ccc(CN2CCOCC2)cc1)N1CCN(C2CC2)CC1 [bavisant] | 0 | 0 | 0 | 0 | 0.5 | 108% | 104% | 90.6% | 107% | 94.4% | 102% | 97.6% | 103% | 101% | 99.8% | 109% | 104% | 104% | 104% | 99.6% | 104% | 102% | 97.7% | 89.6% | 98.9% | 86.9% | 95% | 87.1% | 88.9% | 89.2% | > 10 µM | > 10 µM | > 10 µM | > 10 µM | > 10 µM
O=C(Nc1ccc(C(=O)O)c(O)c1)c1ccccc1 [benzoylpas] | 0 | 0 | 0 | 0 | 0 | 93.5% | 97% | 97.7% | 98.6% | 107% | 100% | 102% | 92.8% | 95.9% | 101% | 99.8% | 96.8% | 105% | 97.4% | 103% | 93% | 97.5% | 91.9% | 97.5% | 92% | 94.1% | 106% | 97.9% | 90.3% | 91.1% | > 10 µM | > 10 µM | > 10 µM | > 10 µM | > 10 µM
CC(C)(C)CC(C)(C)c1cc(Cc2cc(C(C)(C)CC(C)(C)C)cc(-n3nc4ccccc4n3)c2O)c(O)c(-n2nc3ccccc3n2)c1 [bisoctrizole] | 0 | 0 | 0 | 0.1 | 0 | 98.6% | 108% | 97.5% | 98.6% | 105% | 96.8% | 99.7% | 95.5% | 99.5% | 94.4% | 103% | 101% | 96.5% | 98.1% | 101% | 98.6% | 99.3% | 97.1% | 98.9% | 87.7% | 88.8% | 99% | 90.8% | 105% | 103% | > 10 µM | > 10 µM | > 10 µM | > 10 µM | > 10 µM
COC(=O)N/N=C/c1c[n+]([O-])c2ccccc2[n+]1[O-] [carbadox] | 0 | 0 | 0 | 0 | 0 | 110% | 95.4% | 96.1% | 105% | 110% | 99.5% | 97.4% | 99.2% | 91.7% | 98.2% | 93.7% | 95.8% | 88.9% | 92.6% | 111% | 90.4% | 81.8% | 92.9% | 92.1% | 88.4% | 93.8% | 84.8% | 95.7% | 105% | 93.2% | > 10 µM | > 10 µM | > 10 µM | > 10 µM | > 10 µM
O=C(O)c1ccc2[nH]cc(CCCCN3CC=C(c4ccccc4)CC3)c2c1 [carmoxirole] | 0 | 0 | 0 | 0 | 0 | 98.4% | 93% | 86.7% | 100% | 88.3% | 103% | 99% | 96.9% | 100% | 101% | 99.2% | 100% | 93.6% | 102% | 95.8% | 106% | 107% | 103% | 91.2% | 105% | 98.7% | 112% | 92.4% | 96% | 90.8% | > 10 µM | > 10 µM | > 10 µM | > 10 µM | > 10 µM
CO/N=C(\C(=O)N[C@@H]1C(=O)N2C(C(=O)O)=C(CSc3nc(C)c(CC(=O)O)s3)CS[C@H]12)c1csc(N)n1 [cefodizime] | 0 | 0 | 0 | 0 | 0 | 88.6% | 105% | 98.8% | 97.3% | 103% | 96.1% | 95.5% | 99.4% | 97.7% | 98.9% | 93.3% | 95.8% | 89.4% | 99.6% | 106% | 89.2% | 89.8% | 105% | 100% | 89.3% | 98.9% | 93.5% | 89.3% | 86.3% | 96.8% | > 10 µM | > 10 µM | > 10 µM | > 10 µM | > 10 µM
CCS(=O)(=O)N(C)[C@H]1c2cc(C#N)ccc2OC(C)(C)[C@@H]1O [chromanol-293B-(-)-[3R,4S]] | 0 | 0 | 0 | 0 | 0 | 104% | 102% | 91.6% | 103% | 98.7% | 93% | 93.8% | 99.1% | 94.3% | 95.2% | 96.6% | 107% | 98.2% | 92.5% | 110% | 94.3% | 93.2% | 90.4% | 93.3% | 88.9% | 105% | 99.2% | 95.5% | 106% | 90.6% | > 10 µM | > 10 µM | > 10 µM | > 10 µM | > 10 µM
CC1(COc2ccc(CC3SC(=O)NC3=O)cc2)CCCCC1 (stereo not given) [ciglitazone] | 0 | 0 | 0 | 0 | 0 | 101% | 99.8% | 98.2% | 108% | 105% | 95.3% | 99.8% | 102% | 100% | 100% | 94.6% | 97% | 92.7% | 94.1% | 96.5% | 98.7% | 99.2% | 99.1% | 92.9% | 95.2% | 104% | 98.4% | 92.9% | 98% | 102% | > 10 µM | > 10 µM | > 10 µM | > 10 µM | > 10 µM
O=C(/C=C/c1cccc(F)c1)NC1CC1 [cinflumide] | 0.5 | 0 | 0 | 0 | 0 | 92.8% | 101% | 101% | 97.7% | 84.8% | 98.9% | 101% | 91.5% | 98% | 99.8% | 101% | 98.7% | 106% | 102% | 91.8% | 104% | 99.9% | 95.5% | 99.3% | 98.1% | 96.8% | 91.7% | 102% | 99.9% | 96.4% | > 10 µM | > 10 µM | > 10 µM | > 10 µM | > 10 µM
CCNC(=O)/C=C/c1cccc(Br)c1 [cinromide] | 0 | 0 | 0 | 0.7 | 0 | 105% | 96.5% | 106% | 97.5% | 96.8% | 101% | 96.7% | 99% | 96.3% | 98.5% | 110% | 83.6% | 97.1% | 101% | 95.6% | 99.1% | 96.4% | 105% | 87.2% | 92.4% | 102% | 101% | 106% | 91.5% | 107% | > 10 µM | > 10 µM | > 10 µM | > 10 µM | > 10 µM
COc1cc(/C=C/C(N)=O)cc(OC)c1OC [cintriamide] | 0 | 0 | 0 | 0 | 0 | 97.1% | 99.6% | 100% | 95.1% | 114% | 98.2% | 102% | 101% | 102% | 106% | 96.3% | 97.2% | 95.5% | 90.2% | 104% | 83% | 98.3% | 96% | 97.1% | 99.2% | 106% | 97.4% | 95.6% | 102% | 105% | > 10 µM | > 10 µM | > 10 µM | > 10 µM | > 10 µM
CC(=O)NC1CCSC1=O (stereo not given) [citiolone] | 0 | 0 | 0 | 0 | 0 | 102% | 95.8% | 95.1% | 109% | 110% | 95.4% | 95.4% | 101% | 100% | 105% | 99.9% | 94.7% | 95.6% | 102% | 106% | 98.8% | 92.6% | 97.6% | 99.7% | 99.6% | 103% | 98.4% | 93.2% | 101% | 110% | > 10 µM | > 10 µM | > 10 µM | > 10 µM | > 10 µM
CC(C)(COP(=O)(O)OP(=O)(O)OC[C@H]1O[C@@H](n2cnc3c(N)ncnc32)[C@H](O)[C@@H]1OP(=O)(O)O)[C@@H](O)C(=O)NCCC(=O)NCCS [coenzyme-A] | 0 | 0 | 0 | 0 | 0 | 109% | 96.6% | 111% | 96% | 98.4% | 96.9% | 100% | 103% | 103% | 104% | 108% | 102% | 92.4% | 104% | 98.9% | 100% | 100% | 102% | 97.8% | 110% | 100% | 101% | 96.7% | 99.8% | 102% | > 10 µM | > 10 µM | > 10 µM | > 10 µM | > 10 µM
